Measured values as given in patent US6638973B2, “Taxane formulations” (FSU Research Foundation, Inc., priority 2000, dated 2003).

The compounds below were run on HCT116 cells (assay: In vitro cytotoxicity measured by the cell colony formation assay). Details: HCT116 cells, 72 h drug incubation, colonies counted after 7 days; ID50 = drug concentration producing 50% inhibition of colony formation; read-out: IN VITRO ID 50 (nm) HCT116.
Format: cell-based
Description: (§1) Four hundred cells (HCT116) were plated in 60 mm Petri dishes containing 2.7 mL of medium (modified McCoy's 5a medium containing 10% fetal bovine serum and 100 units/mL penicillin and 100 µg/mL streptomycin). The cells were incubated in a CO2 incubator at 37° C. for 5 h for attachment to the bottom of Petri dishes. The compounds identified in Example 2 were made up fresh in medium at ten times the final concentration, and then 0.3 mL of this stock solution was added to the 2.7 mL of medium in the dish. The cells were then incubated with drugs for 72 h at 37° C. At the end of incubation the drug-containing media were decanted, the dishes were rinsed with 4 mL of Hank's Balance Salt Solution (HBSS), 5 mL of fresh medium was added, and the dishes were returned to the incubator for colony formation. The cell colonies were counted using a colony counter after incubation for 7 days.
as §1, with “Example 7” for “Example 2”
as §1, with “Example 22” for “Example 2”
as §1, with “Example 27” for “Example 2”
Four hundred cells (HCT116) were plated in 60 mm Petri dishes containing 2.7 mL of medium (modified McCoy's 5a medium containing 10% fetal bovine serum and 100 units/mL penicillin and 100 µg/mL streptomycin). The cells were incubated in a CO2 incubator at 37° C. for 5 h for attachment to the bottom of Petri dishes. […]
With CC(=O)O[C@@]12CO[C@@H]1C[C@H](OC(=O)Nc1ccc(F)c(F)c1)[C@@]1(C)C(=O)[C@H](O)C3=C(C)[C@@H](OC(=O)[C@H](O)[C@@H](NC(=O)OC(C)(C)C)c4ccco4)C[C@@](O)([C@@H](OC(=O)c4ccccc4)C12)C3(C)C (stereo partly drawn) [Compound 5415] the IC50 was < 1 nM.

Same assay, conditions: HCT116 cells, 72 h incubation with drug, colonies counted after 7 days; ID50 = drug concentration producing 50% inhibition of colony formation; read-out: IN VITRO ID 50 (nm) HCT116
For CCOC(=O)O[C@H]1C[C@H]2OC[C@@]2(OC(C)=O)C2[C@H](OC(=O)c3ccccc3)[C@]3(O)C[C@H](OC(=O)[C@H](O)[C@@H](NC(=O)OCC(C)C)c4cccs4)C(C)=C([C@@H](O)C(=O)[C@@]21C)C3(C)C (stereo partly drawn) [Compound 4363], the IC50 was < 10 nM. For COC(=O)O[C@H]1C(=O)[C@@]2(C)C([C@H](OC(=O)c3ccccc3)[C@]3(O)C[C@H](OC(=O)[C@H](O)[C@@H](NC(=O)OC(C)(C)C)c4ccoc4)C(C)=C1C3(C)C)[C@]1(OC(C)=O)CO[C@@H]1C[C@@H]2O (stereo partly drawn) [Compound 2032], the IC50 was < 1 nM. C/C=C/C(=O)N[C@@H](c1ccco1)[C@@H](O)C(=O)O[C@H]1C[C@@]2(O)[C@@H](OC(=O)c3ccccc3)C3[C@](C)(C(=O)[C@H](O)C(=C1C)C2(C)C)[C@@H](OC(=O)OCC)C[C@H]1OC[C@@]31OC(C)=O (stereo partly drawn) [Compound 4818] was tested, and the IC50 was < 1 nM. For COC(=O)O[C@H]1C[C@H]2OC[C@@]2(OC(C)=O)C2[C@H](OC(=O)c3ccccc3)[C@]3(O)C[C@H](OC(=O)[C@H](O)[C@@H](NC(=O)OC(C)(C)C)c4ccoc4)C(C)=C([C@@H](O)C(=O)[C@@]21C)C3(C)C (stereo partly drawn) [Compound 4434], the IC50 was < 1 nM. COC(=O)O[C@H]1C(=O)[C@@]2(C)C([C@H](OC(=O)c3ccccc3)[C@]3(O)C[C@H](OC(=O)[C@H](O)[C@@H](NC(=O)OC(C)(C)C)c4ccsc4)C(C)=C1C3(C)C)[C@]1(OC(C)=O)CO[C@@H]1C[C@@H]2O (stereo partly drawn) [Compound 2050] was tested, and the IC50 was < 1 nM. With CCCC(=O)N[C@@H](c1ccco1)[C@@H](O)C(=O)O[C@H]1C[C@@]2(O)[C@@H](OC(=O)c3ccccc3)C3[C@](C)(C(=O)[C@H](OC(=O)OCC)C(=C1C)C2(C)C)[C@@H](O)C[C@H]1OC[C@@]31OC(C)=O (stereo partly drawn) [Compound 3929] the IC50 was < 1 nM.

Same assay, conditions: HCT116 cells, colony formation, 72 h incubation with drug, colonies counted after 7 days; ID50 = drug concentration producing 50% inhibition of colony formation; read-out: IN VITRO ID 50 (nm) HCT116
CCNC(=O)O[C@H]1C(=O)[C@@]2(C)C([C@H](OC(=O)c3ccccc3)[C@]3(O)C[C@H](OC(=O)[C@H](O)[C@H](C=C(C)C)NC(=O)OC(C)(C)C)C(C)=C1C3(C)C)[C@]1(OC(C)=O)CO[C@@H]1C[C@@H]2O (stereo partly drawn) [Compound 2686] was tested, and the IC50 was < 1 nM.

Same assay, conditions: HCT116 colony formation; 72 h drug incubation, colonies counted after 7 days; Example 5, C-7 ester/C-10 hydroxy taxanes; read-out: IN VITRO ID 50 (nm) HCT116
In the case of CCCC(=O)O[C@H]1C[C@H]2OC[C@@]2(OC(C)=O)C2[C@H](OC(=O)c3ccccc3)[C@]3(O)C[C@H](OC(=O)[C@H](O)[C@@H](NC(=O)OC(C)(C)C)c4ccsc4)C(C)=C([C@@H](O)C(=O)[C@@]21C)C3(C)C (stereo partly drawn) [Compound 4446], the IC50 is reported as < 1 nM. CCC(C)(C)OC(=O)N[C@@H](c1ccco1)[C@@H](O)C(=O)O[C@H]1C[C@@]2(O)[C@@H](OC(=O)c3ccccc3)C3[C@](C)(C(=O)[C@H](O)C(=C1C)C2(C)C)[C@@H](OC(=O)C(C)C)C[C@H]1OC[C@@]31OC(C)=O (stereo partly drawn) [Compound 6252] was tested, and the IC50 was < 1 nM. With CCOC(=O)N[C@@H](c1ccco1)[C@@H](O)C(=O)O[C@H]1C[C@@]2(O)[C@@H](OC(=O)c3ccccc3)C3[C@](C)(C(=O)[C@H](O)C(=C1C)C2(C)C)[C@@H](OC(=O)CC)C[C@H]1OC[C@@]31OC(C)=O (stereo partly drawn) [Compound 3611] the IC50 was < 1 nM. CCC(=O)O[C@H]1C[C@H]2OC[C@@]2(OC(C)=O)C2[C@H](OC(=O)c3ccccc3)[C@]3(O)C[C@H](OC(=O)[C@H](O)[C@@H](NC(=O)c4cccnc4)c4cccs4)C(C)=C([C@@H](O)C(=O)[C@@]21C)C3(C)C (stereo partly drawn) [Compound 4106] was tested, and the IC50 was < 10 nM. For CCCC(=O)O[C@H]1C[C@H]2OC[C@@]2(OC(C)=O)C2[C@H](OC(=O)c3ccccc3)[C@]3(O)C[C@H](OC(=O)[C@H](O)[C@@H](NC(=O)OCC(C)C)c4cccs4)C(C)=C([C@@H](O)C(=O)[C@@]21C)C3(C)C (stereo partly drawn) [Compound 4290], the IC50 was < 10 nM. For CCCC(=O)O[C@H]1C[C@H]2OC[C@@]2(OC(C)=O)C2[C@H](OC(=O)c3ccccc3)[C@]3(O)C[C@H](OC(=O)[C@H](O)[C@@H](NC(=O)OCC(C)C)c4ccsc4)C(C)=C([C@@H](O)C(=O)[C@@]21C)C3(C)C (stereo partly drawn) [Compound 4600], the IC50 was < 10 nM.

Same assay, conditions: HCT116 colony formation; 72 h drug incubation, colonies counted after 7 days; Example 10, C-10 ester/C-7 hydroxy taxanes; read-out: IN VITRO ID 50 (nm) HCT116
With CC(=O)OC12COC1CC(O)C1(C)C(=O)C(OC(=O)C(C)C)C3=C(C)C(OC(=O)C(O)C(C=C(C)C)NC(=O)OC(C)(C)C)CC(O)(C(OC(=O)c4ccccc4)C21)C3(C)C (stereo not drawn) [Compound 2226] the IC50 was < 1 nM. CC(=O)OC12COC1CC(O)C1(C)C(=O)C(OC(=O)c3cccs3)C3=C(C)C(OC(=O)C(O)C(NC(=O)OC(C)(C)C)c4ccsc4)CC(O)(C(OC(=O)c4ccccc4)C21)C3(C)C (stereo not drawn) [Compound 1939] was tested, and the IC50 was < 1 nM. With CCCC(=O)OC1C(=O)C2(C)C(O)CC3OCC3(OC(C)=O)C2C(OC(=O)c2ccccc2)C2(O)CC(OC(=O)C(O)C(NC(=O)OC(C)(C)C)C3CCC3)C(C)=C1C2(C)C (stereo not drawn) [Compound 1044] the IC50 was < 1 nM. CC(=O)OC12COC1CC(O)C1(C)C(=O)C(OC(=O)c3cccs3)C3=C(C)C(OC(=O)C(O)C(NC(=O)OC(C)(C)C)c4ccc([N+](=O)[O-])cc4)CC(O)(C(OC(=O)c4ccccc4)C21)C3(C)C (stereo not drawn) [Compound 1911] was tested, and the IC50 was < 10 nM. With CC(=O)O[C@@]12CO[C@@H]1C[C@H](O)[C@@]1(C)C(=O)[C@H](OC(=O)C3CC3)C3=C(C)[C@@H](OC(=O)[C@H](O)[C@@H](NC(=O)c4cccs4)c4cccs4)C[C@@](O)([C@@H](OC(=O)c4ccccc4)C12)C3(C)C (stereo partly drawn) [Compound 3453] the IC50 was < 1 nM. In the case of CCCC(=O)O[C@H]1C(=O)[C@@]2(C)C([C@H](OC(=O)c3ccccc3)[C@]3(O)C[C@H](OC(=O)[C@H](O)[C@@H](NC(=O)c4ccco4)c4cccs4)C(C)=C1C3(C)C)[C@]1(OC(C)=O)CO[C@@H]1C[C@@H]2O (stereo partly drawn) [Compound 3352], the IC50 is reported as < 1 nM.

Same assay, conditions: HCT116 colony formation; 72 h drug incubation, colonies counted after 7 days; Example 20, C-10 substituted acetate/C-7 hydroxy taxanes; read-out: IN VITRO ID 50 (nm) HCT116
In the case of CCC(C)(C)OC(=O)N[C@@H](c1ccco1)[C@@H](O)C(=O)O[C@H]1C[C@@]2(O)[C@@H](OC(=O)c3ccccc3)C3[C@](C)(C(=O)[C@H](OC(=O)COC(C)=O)C(=C1C)C2(C)C)[C@@H](O)C[C@H]1OC[C@@]31OC(C)=O (stereo partly drawn) [Compound 6577], the IC50 is reported as < 1 nM. C/C=C/C(=O)N[C@@H](c1ccco1)[C@@H](O)C(=O)O[C@H]1C[C@@]2(O)[C@@H](OC(=O)c3ccccc3)C3[C@](C)(C(=O)[C@H](OC(=O)COc4ccccc4)C(=C1C)C2(C)C)[C@@H](O)C[C@H]1OC[C@@]31OC(C)=O (stereo partly drawn) [Compound 6111] was tested, and the IC50 was < 1 nM.

Same assay, conditions: Homo sapiens, HCT-116; HCT116 colony formation; 72 h drug incubation, colonies counted after 7 days; Example 5, C-7 ester/C-10 hydroxy taxanes; read-out: IN VITRO ID 50 (nm) HCT116
Compound CC(=O)O[C@@]12CO[C@@H]1C[C@H](O)[C@@]1(C)C(=O)[C@H](O)C3=C(C)[C@@H](OC(=O)[C@H](O)[C@@H](NC(=O)OC(C)(C)C)c4ccccc4)C[C@@](O)([C@@H](OC(=O)c4ccccc4)[C@H]21)C3(C)C [docetaxel, reference compound] has an IC50 of 0.6 nM. CC(=O)O[C@H]1C(=O)[C@@]2(C)[C@H]([C@H](OC(=O)c3ccccc3)[C@]3(O)C[C@H](OC(=O)[C@H](O)[C@@H](NC(=O)c4ccccc4)c4ccccc4)C(C)=C1C3(C)C)[C@]1(OC(C)=O)CO[C@@H]1C[C@@H]2O [taxol, paclitaxel, reference compound] showed an IC50 of 2.1 nM.
